In patent US20120214846A1, “HEXAHYDROCYCLOPENTYL[F]INDAZOLE PYRIDYL ETHANOLS AND DERIVATIVES THEREOF AS SELECTIVE GLUCOCORTICOID RECEPTOR MODULATORS” (MERCK SHARP & DOHME CORP, priority 2009, published 2012):
In brackets after ≈: the same amount, converted by molar mass. Where two headings read alike, the source gives them in different places.

Key:
[1] = Solubility at pH 2; assay type: physicochemical
[2] = target: T1, GR (Homo sapiens, UniProt P04150); experiment: Trans-Activation Modulation of Glucocorticoid Receptor Assay (GRAMMER), MMTV-LUC reporter, A549 cells; assay type: cell-based; set-up: endogenous in cells
T1 sequence (P04150 1-777): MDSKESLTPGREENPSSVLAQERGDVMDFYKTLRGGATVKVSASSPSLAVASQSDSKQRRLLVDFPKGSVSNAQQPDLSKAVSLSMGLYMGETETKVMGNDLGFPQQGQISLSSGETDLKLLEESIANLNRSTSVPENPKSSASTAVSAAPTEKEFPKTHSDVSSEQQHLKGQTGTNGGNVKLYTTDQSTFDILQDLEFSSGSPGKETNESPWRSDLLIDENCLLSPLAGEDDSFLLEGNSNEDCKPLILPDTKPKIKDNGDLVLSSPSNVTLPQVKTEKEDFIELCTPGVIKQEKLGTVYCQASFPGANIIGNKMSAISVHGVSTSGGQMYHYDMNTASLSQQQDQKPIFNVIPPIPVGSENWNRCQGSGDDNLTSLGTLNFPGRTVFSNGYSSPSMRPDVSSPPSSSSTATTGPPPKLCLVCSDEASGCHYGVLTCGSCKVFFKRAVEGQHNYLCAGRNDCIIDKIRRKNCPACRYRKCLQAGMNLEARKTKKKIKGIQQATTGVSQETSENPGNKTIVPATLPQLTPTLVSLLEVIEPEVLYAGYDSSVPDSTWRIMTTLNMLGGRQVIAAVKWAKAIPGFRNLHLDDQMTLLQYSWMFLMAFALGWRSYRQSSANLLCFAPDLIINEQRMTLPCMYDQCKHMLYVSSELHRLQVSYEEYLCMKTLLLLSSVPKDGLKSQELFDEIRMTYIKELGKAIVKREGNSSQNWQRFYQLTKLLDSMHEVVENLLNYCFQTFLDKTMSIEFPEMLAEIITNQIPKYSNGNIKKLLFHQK
Source text: Trans-Activation Modulation of Glucocorticoid Receptor Assay
This assay assesses the ability of test compounds to control transcription from the MMTV-LUC reporter gene in lung adenocarcinoma A549 cells or HeLa cells, a human […] cell line that naturally expresses the human GR. The assay measures induction of a modified MMTV LTR/promoter linked to the LUC reporter gene.
The routine transient assay consists of plating 7,000-25,000 cells/well of a white, clear-bottom 96-well plate. Alternatively, 384-well plates can be used at a cell concentration of 10,000/well. The media that the cells are plated in is “exponential growth medium” which consists of phenol red-free RPMI1640 containing 10% FBS, 4 mM L-glutamine, 20 mM HEPES, 10 ug/mL human insulin, and 20 ug/mL gentamicin. Incubator conditions are 37° C. and 5% CO2. The transfection is done in batch mode. The cells are trypsinized and counted to the right cell number in the proper amount of fresh media. It is then gently mixed with the FuGene6/DNA mix and plated onto the 96 or 384-well plate, all the wells receive 100 uL or 40 uL, respectively, of medium+lipid/DNA complex then incubated 37° C. overnight. The transfection cocktail consists of serum-free OptiMEM, FuGene6 reagent and DNA. The manufacturer's (Roche Biochemical) protocol for cocktail setup is as follows: The lipid to DNA ratio is approximately 2.5:1 and the incubation time is 20 min at room temperature. Sixteen to 24 hours after transfection, the cells are treated with dexamethasone to a final concentration of 10 nM as well as the compound of interest, such that final DMSO (vehicle) concentration is equal to or less than 1%. Each plate also contains samples that are treated with 10 nM dexamethasone alone, which is used as the 100% activity control. The cells are exposed to the compounds for 24 hours. After 24 hours, the cells are lysed by a Promega cell culture lysis buffer for approximately 30 min and then the luciferase activity in the extracts is assayed in the 96-well format luminometer. In 384-well format, Steady-Glo (Promega) or Steady-Lite (PerkinElmer) can be used by adding an equal volume of reagent to the media present in each well. […] Antagonist activity is calculated by determining the decrease in dexamethasone-induced activity in response to compound treatment relative to samples that were treated with dexamethasone alone. […] This transactivation assay can be performed in an agonist and antagonist mode to identify these different activities.
The action of compounds is also tested in an antagonist mode (Anti-GRAMMER) in which the cells are treated with medium containing an agonist such as 10 nM DEX and the ability to agents to inhibit the activation by an agonist is measured.

[3] = pH 2, aqueous buffer, pH 2, read-out: Solubility At pH 2
[4] = A549 cells, inflection point, read-out: Transactivation A549 Cells GRAMMER IP
[5] = A549 cells, relative to 300 nM dexamethasone
[6] = A549, A549 cells, relative to 300 nM dexamethasone, read-out: Transactivation A549 Cells GRAMMER Emax
[7] = pH 2, read-out: Solubility At pH 2
[8] = A549, Table 4, literature compounds, read-out: GRAMMER EMAX
[9] = Table 4, literature compounds, read-out: GRAMMER IP

SMILES: Cc1cccnc1C(O)C[C@]1(O)CCC2=Cc3c(cnn3-c3ccc(F)cc3)C[C@@]21C (single isomer, unassigned) [Example 1a]
- solubility [1, 3]: 148 µM (≈ 62.1 µg/mL)
- EC50 [2, 4]: 0.116 µM
- Transactivation A549 Cells GRAMMER Emax [2, 5]: 64.8%

SMILES: Cc1cccnc1C(O)C[C@]1(O)CCC2=Cc3c(cnn3-c3ccc(F)cc3)C[C@@]21C (single isomer, unassigned) [Example 1b]
- EC50 [2, 4]: 0.236 µM
- Transactivation A549 Cells GRAMMER Emax [2, 5]: 27.4%

SMILES: C[C@]12Cc3cnn(-c4ccc(F)cc4)c3C=C1CC[C@@]2(O)CC(O)c1ccccn1 (single isomer, unassigned) [Example 2a]
- solubility [1, 3]: 105 µM (≈ 42.6 µg/mL)
- Emax [2, 6]: 23.1%
- EC50 [2, 4]: 0.346 µM

SMILES: C[C@]12Cc3cnn(-c4ccc(F)cc4)c3C=C1CC[C@@]2(O)CC(O)c1ccccn1 (single isomer, unassigned) [Example 2b]
- solubility [1, 7]: 192 µM (≈ 77.9 µg/mL)
- EC50 [2, 4]: 0.255 µM
- Transactivation A549 Cells GRAMMER Emax [2, 5]: 26.8%

SMILES: C[C@]12Cc3cnn(-c4ccc(F)cc4)c3C=C1CC[C@@]2(O)CC(O)c1cc(C(F)(F)F)ccn1 (single isomer, unassigned) [Example 5a]
- solubility [1, 7]: 18 µM (≈ 8.52 µg/mL)
- Emax [2, 6]: 15.1%
- EC50 [2, 4]: 0.0521 µM

SMILES: C[C@]12Cc3cnn(-c4ccc(F)cc4)c3C=C1CC[C@@]2(O)CC(O)c1cc(C(F)(F)F)ccn1 (single isomer, unassigned) [Example 5b]
- solubility [1, 7]: 3 µM (≈ 1.42 µg/mL)
- EC50 [2, 4]: 0.158 µM
- Transactivation A549 Cells GRAMMER Emax [2, 5]: 18.1%

SMILES: C[C@]12Cc3cnn(-c4ccc(F)cc4)c3C=C1CC[C@@]2(O)CC(O)c1ccc(F)cn1 (single isomer, unassigned) [Example 7a]
- solubility [1, 3]: 64 µM (≈ 27.1 µg/mL)
- Emax [2, 6]: 18.6%
- EC50 [2, 4]: 0.32 µM

SMILES: C[C@]12Cc3cnn(-c4ccc(F)cc4)c3C=C1CC[C@@]2(O)CC(O)c1ccc(F)cn1 (single isomer, unassigned) [Example 7b]
- solubility [1, 7]: 35 µM (≈ 14.8 µg/mL)
- EC50 [2, 4]: 0.0855 µM
- Transactivation A549 Cells GRAMMER Emax [2, 5]: 16.6%

SMILES: C[C@]12Cc3cnn(-c4ccc(F)cc4)c3C=C1CC[C@@]2(O)CC(O)c1cc(Cl)ccn1 (single isomer, unassigned) [Example 8a]
- solubility [1, 7]: <1 µM
- Emax [2, 6]: 21.4%
- EC50 [2, 4]: 0.129 µM

SMILES: C[C@]12Cc3cnn(-c4ccc(F)cc4)c3C=C1CC[C@@]2(O)CC(O)c1cc(Cl)ccn1 (single isomer, unassigned) [Example 8b]
- solubility [1, 7]: 119 µM (≈ 52.4 µg/mL)
- EC50 [2, 4]: 0.0267 µM
- Transactivation A549 Cells GRAMMER Emax [2, 5]: 25.2%

SMILES: C[C@]12Cc3cnn(-c4ccc(F)cc4)c3C=C1CC[C@@]2(O)CC(O)c1cc(Br)ccn1 (single isomer, unassigned) [Example 10a]
- solubility [1, 7]: 7 µM (≈ 3.39 µg/mL)
- EC50 [2, 4]: 0.0174 µM
- Transactivation A549 Cells GRAMMER Emax [2, 5]: 8.2%

SMILES: C[C@]12Cc3cnn(-c4ccc(F)cc4)c3C=C1CC[C@@]2(O)CC(O)c1cc(Br)ccn1 (single isomer, unassigned) [Example 10b]
- solubility [1, 7]: 2 µM (≈ 0.969 µg/mL)
- EC50 [2, 4]: 0.08 µM
- Transactivation A549 Cells GRAMMER Emax [2, 5]: 19.8%

SMILES: C[C@]12Cc3cnn(-c4ccc(F)cc4)c3C=C1CC[C@@]2(O)C#Cc1ccccc1 [Ex. 1 WO 04/075840 A2, reference compound]
- solubility ([1]; Table 4, literature compounds): poor
- Emax [2, 8]: 6.19%
- EC50 [2, 9]: 0.385 µM

SMILES: C[C@]12Cc3cnn(-c4ccc(F)cc4)c3C=C1CCC[C@@H]2[C@@H](O)Cc1ccccc1 [Ex. 22 WO 03/086294 A2, reference compound]
- solubility ([1]; Table 4, literature compounds): poor
- Emax [2, 8]: 61%
- EC50 [2, 9]: 0.122 µM

SMILES: C[C@]12Cc3cnn(-c4ccc(F)cc4)c3C=C1CCC[C@@H]2[C@@H](O)CCc1ccccc1 [Ex. 30 WO 03/086294 A2, reference compound]
- solubility ([1]; Table 4, literature compounds): poor
- Emax ([2]; A549, read-out: GRAMMER EMAX): 48.8%
- EC50 ([2]; GRAMMER IP, Table 4, literature compounds): 0.166 µM

SMILES: C[C@]12Cc3cnn(-c4ccc(F)cc4)c3C=C1CCC[C@@H]2[C@@H](O)c1ccccc1 [Ex. 35 WO 03/86294 A2, reference compound]
- solubility ([1]; Table 4, literature compounds): poor
- Emax [2, 8]: 40.2%
- EC50 [2, 9]: 0.195 µM

SMILES: CO[C@@]1(CCc2ccccc2Cl)CCC2=Cc3c(cnn3-c3ccc(F)cc3)C[C@@]21C [Ex. 103 WO 04/075840 A2, reference compound]
- solubility ([1]; Table 4, literature compounds): poor
- Emax [2, 8]: 115%
- EC50 [2, 9]: 0.162 µM

SMILES: COc1ccnc(C(O)C[C@]2(O)CCC3=Cc4c(cnn4-c4ccc(F)cc4)C[C@@]32C)c1 (stereo partly drawn) [Example 3, (4αS,5R)-1-(4-fluorophenyl)-5-[2-hydroxy-2-(4-methoxypyridin-2-yl)ethyl]-4α-methyl-1,4,4α,5,6,7-hexahydrocyclopenta[f]indazol-5-ol]
- solubility [1, 3]: 174 µM (≈ 75.8 µg/mL)
- Emax [2, 6]: 21.6%
- EC50 [2, 4]: 0.132 µM

SMILES: C[C@]12Cc3cnn(-c4ccc(F)cc4)c3C=C1CC[C@@]2(O)CC(O)c1ncccc1F (stereo partly drawn) [Example 4, (4αS,5R)-1-(4-fluorophenyl)-5-[2-(3-fluoropyridin-2-yl)-2-hydroxyethyl]-4α-methyl-1,4,4α,5,6,7-hexahydrocyclopenta[f]indazol-5-ol]
- solubility [1, 3]: < 1 µM
- Emax [2, 6]: 17.5%
- EC50 [2, 4]: 0.698 µM

SMILES: C[C@]12Cc3cnn(-c4ccc(F)cc4)c3C=C1CC[C@@]2(O)CC(O)c1ccc(C(F)(F)F)cn1 (stereo partly drawn) [Example 6, (4αS,5R)-1-(4-fluorophenyl)-5-{2-hydroxy-2-[5-(trifluoromethyl)pyridin-2-yl]ethyl}-4α-methyl-1,4,4α,5,6,7-hexahydrocyclopenta[f]indazol-5-ol]
- solubility [1, 3]: 4 µM (≈ 1.89 µg/mL)
- Emax [2, 6]: 18.6%
- EC50 [2, 4]: 0.328 µM

SMILES: C[C@]12Cc3cnn(-c4ccc(F)cc4)c3C=C1CC[C@@]2(O)CC(O)c1cc(C#N)ccn1 (stereo partly drawn) [Example 9, 2-{2-[(4αS,5R)-1-(4-fluorophenyl)-5-hydroxy-4α-methyl-1,4,4α,5,6,7-hexahydrocyclopenta[f]indazol-5-yl]-1-hydroxyethyl}pyridine-4-carbonitrile]
- solubility [1, 3]: 104 µM (≈ 44.8 µg/mL)
- Emax [2, 6]: 27.4%
- EC50 [2, 4]: 0.16 µM
